# Values of other authors as cited in patent publication US20140303119A1, “METHODS, APPARATUS, AND COMPOUNDS FOR THE TREATMENT OF CENTRAL RETINAL VEIN OCCLUSION AND OTHER CONDITIONS” (DiLorenzo Biomedical, LLC, priority 2013, published 2014).
# What was measured:
# [1] = tested on: thrombosis of the central retinal vein; settings: given intravenously, small randomized clinical study
# [2] = tested on: retinal vein occlusion; settings: patients with retinal vein occlusion, troxerutin versus placebo
# [3] = tested on: CRVO; settings: review statement, evidence limited (level B, III)
# [4] = tested on: central retinal vein occlusion
# [5] = tested on: patients with CRVO; settings: 96 patients with CRVO
compound,measurement,setting,value
"COC(=O)[C@H](c1ccccc1Cl)N1CCc2sccc2C1 [Clopidrogel, (+)-(S)-methyl 2-(2-chlorophenyl)-2-(6,7-dihydrothieno[3,2-c]pyridin-5(4H)-yl)acetate]",incidence of blood disorders compared with ticlodipine,no need for regular monitoring,reduced incidence of blood disorders
CCCCC[C@H](O)/C=C/[C@@H]1[C@H]2C/C(=C/CCCC(=O)O)O[C@H]2C[C@H]1O [Prostacyclin],progression to neovascularization versus placebo,[1],no significant difference
same,visual acuity versus placebo,[1],no significant difference
Clc1ccccc1CN1CCc2sccc2C1 [Ticlodipine],"incidence of very serious hematological toxicity, including neutropenia, thrombocytopenia, and aplastic anemia","patients, requires regular monitoring",0.5%-3%
C[C@@H]1O[C@@H](OC[C@H]2O[C@@H](Oc3c(-c4ccc(OCCO)c(OCCO)c4)oc4cc(OCCO)cc(O)c4c3=O)[C@H](O)[C@@H](O)[C@@H]2O)[C@H](O)[C@H](O)[C@H]1O [troxerutin],macular edema versus placebo,[2],improvement
same,retinal circulation time versus placebo,[2],improvement
same,visual acuity versus placebo,[2],improvement
same,outcome of CRVO,[3],trend for improvement
Streptokinase,patients showing deterioration in vision,"[4]; treated group (continuous infusion followed by warfarin), control group 12 of 20",5 of 20
same,patients experiencing massive vitreous hemorrhage with persistence of blindness in those eyes,"[4]; treated group, within 72 hours",3 of 20
"Tissue plasminogen activator (tPA): Tissue plasminogen activator, fibrinolytic therapy",fatal stroke,[5],1 patient
same,severe intraocular bleeding,[5],3 patients
